Data taken from patent US20200188473A1, “COMBINATION THERAPY FOR CANCER” (BETH ISRAEL DEACONESS MEDICAL CENTER, INC., priority 2017, published 2020).

What was measured:
[1] = test system: ACE2; test: transcriptome analysis of untreated vs resistant xenograft tumors; format: in vivo, mice; settings: for ACE2 down modulation in resistant tumors vs control untreated tumors: 786-0 model
Protocol: Transcriptome analysis of the untreated tumors vs the resistant tumors was performed. ACE2 was the second most down-modulated gene common to the sorafenib and sunitinib treated 786-0 model with a 2.4 fold down modulation in the resistant tumors vs the control untreated tumors. Moreover, ACE2 was in the top 3 most down-modulated genes in the A498 tumor model with a 5-fold decrease i n resistant tumors vs untreated tumors (P<0.001).

[2] = test system: human VHL deficient RCC cell lines (A498); settings: A498 xenograft; treatment begun at 12 mm diameter; resistance = time to grow 2 mm beyond pretreatment size; sunitinib 30 mg/kg daily by gavage
Protocol: A murine xenograft system to study resistance antiangiogenic agents was developed. To assess the effects of antiangiogenic therapy on the growth of human RCC xenografts, established human VHL deficient RCC cell lines (A498) were implanted subcutaneously (1×10^7 cells) into the flanks of 6-8 week old nude/beige mice. The tumors were measured in two axes and the largest axis was followed. Treatment with sunitinib or sorafenib was begun when the tumors reached a diameter of 12 mm (roughly 3 weeks after injection) and resistance to this treatment was monitored. Resistance was defined as the time required for a tumor to grow 2 mm beyond its pretreatment size. […] This model was used to study the mechanisms by which tumors escape angiogenesis inhibition.
The effect of sunitinib and Ang(1-7) on the growth of human RCC xenografts was tested. 1×10^7 cells were injected into the flanks of nude-beige mice. Established human VHL deficient RCC cell lines (A498) were implanted subcutaneously (1×10^7 cells) into the flanks of 6-8 week old nude/beige mice. The tumors were measured in two axes and the largest axis was followed. Treatment with sunitinib (30 mg/kg daily by gavage) and Ang(1-7) 1 mg/kg Ang(1-7) IP three times per week was begun when the tumors reached a diameter of 12 mm (roughly 3 weeks after injection). […]

Row | SMILES | ACE2 down modulation in resistant tumors vs control untreated tumors [1] [fold] | ACE2 expression ([1]; murine xenograft system, sunitinib treatment) | period of relative stabilization [2] [days]
1 | CCN(CC)CCNC(=O)c1c(C)[nH]c(/C=C2\C(=O)Nc3ccc(F)cc32)c1C [sunitinib] | 2.4 | loss of ACE2 expression | 10 to 12
2 | CNC(=O)c1cc(Oc2ccc(NC(=O)Nc3ccc(Cl)c(C(F)(F)F)c3)cc2)ccn1 [sorafenib] | 2.4 | – | –
